Reference: US20250215087A1, “COMBINATION THERAPY OF KRAS INHIBITOR AND TREG DEPLETING AGENT” (Bristol-Myers Squibb Company, priority 2023, published 2025)

What was measured:
[1] = test system: Lewis Lung (3LL) carcinoma model; test: Imaging mass cytometry of Lewis Lung (3LL) carcinoma lungs after 7 days MRTX1257 or Vehicle; spatial community analysis; type: in vivo, C57BL/6 mice
Procedure: Two datasets of IMC data generated from an in vivo experiment in which the Lewis Lung (3LL) carcinoma model was treated with the KRAS-G12C inhibitor MRTX1257 for 7 days prior to harvesting of the lungs were published previously in van Maldegem et al. (2021), Nat. Commun. 12:5906 (dataset 1) and Mugarza et al. (2022), Sci. Adv. 8: eabm8780 (dataset 2).
Following 3 weeks, mice were treated with either 50 mg/kg MRTX1257 or Vehicle for 7 consecutive days. Mice were sacrificed on day 8 and lungs were harvested and frozen. Tumors of 3 mice from each treatment group for dataset 1 and 4 mice from each treatment group for dataset 2 were processed for imaging mass cytometry. Tissue slices were stained with a cocktail of antibodies conjugated to heavy metal isotopes and images were obtained using a Hyperion Imaging Mass Cytometer (Standard BioTools). Different antibody panels were used for the generation of datasets 1 and 2 (FIGS. 1A and 1B). In total, 6 images were acquired from both Vehicle and MRTX1257 groups for dataset 1, and the Vehicle group for dataset 2, and 5 images were acquired from the MRTX1257 group for dataset 2.
For further details on the in vivo study and IMC, including tissue processing, antibody staining, imaging acquisition and cell typing, reference is generally made to the Materials and Methods and Supplementary Materials provided by van Maldegem et al. (2021) and Mugarza et al. (2022), which are herewith incorporated by reference.
As described in van Maldegem et al. (2021), cellular neighbors were identified during segmentation using the CellProfiler module ‘Measure Object Neighbours’, following steps to identify individual cells. Neighbors were identified if a cell's boundary was within 15 μm (pixels) of the cell boundary of interest. Neighbor information was obtained for every cell object in each tissue.
Each ‘neighborhood’ was identified as a single cell and its local neighbors; defined by 15 μm object relationship output data from segmentation.
Expression values for each marker were normalized to the mean intensity of Xenon134. Following this, the data for each image across both treatment groups was concatenated, creating a size of 282,837 cells for dataset 1 and 626,070 cells for dataset 2. Each channel was then scaled to the 99th percentile. […] These clusters formed the basis to identify cell types present in the tissue, including tumor, lymphocytes, myeloid cells, fibroblasts, and endothelium. More details are available in van Maldegem et al., 2021 for dataset 1 and Mugarza et al., 2022 for dataset 2.
As described in van Maldegem et al., 2021, the neighbourhood method developed by Bodenmiller (https://github.com/BodenmillerGroup/neighbourhood; Schapiro et al., 2017, histoCAT: analysis of cell phenotypes and interactions in multiplex image cytometry data. Nat Methods 14, 873-876) was used to identify the enrichment of cell types within the 15-pixel neighborhood of each cell compared to random permutations of events, with a modification of only calculating enrichment in the CD8^+ T cell neighborhood, separated by community and using 1000 rounds of permutation. This was carried out for the community names T cell/normal adjacent community (T/NA), T cell/Type 1 macrophage community (T/M1), T cell/Dendritic cell community (T/DC), T cell/Type 2 macrophage community 1 (T/M2_1) and T cell/Type 2 macrophage community 2 (T/M2_2) communities for the MRTX1257 treatment setting.
Neighborhood enrichment analysis was also used for exploring cell pair relationships in the presence or absence of Tregs within the T/DC and T/M2_2 communities following MRTX treatment. Enrichment scores were only deemed statistically significant if the p-value when comparing real neighbors to randomized neighbors was ≤0.01.

[2] = test system: Lewis Lung (3LL) carcinoma model; conditions: van Maldegem et al. 2021, cited from earlier work
[3] = test system: orthotopic Lewis lung (3LL) NSCLC tumors; conditions: seven consecutive days of treatment; van Maldegem et al. 2021; cited from earlier work
[4] = test system: advanced melanoma; conditions: Hodi et al. 2010; cited from earlier work
[5] = test system: KRAS-G12C mutant NSCLC; conditions: clinical trials; cited from earlier work
[6] = biological target: T1, CCR4 (Homo sapiens, UniProt P51679); conditions: Kurose et al. 2015; cited from earlier work
T1 construct: host or cells: Tregs, conventional CD4+ and CD8+ T cells (in vivo, cited study)
T1 sequence (P51679 1-360): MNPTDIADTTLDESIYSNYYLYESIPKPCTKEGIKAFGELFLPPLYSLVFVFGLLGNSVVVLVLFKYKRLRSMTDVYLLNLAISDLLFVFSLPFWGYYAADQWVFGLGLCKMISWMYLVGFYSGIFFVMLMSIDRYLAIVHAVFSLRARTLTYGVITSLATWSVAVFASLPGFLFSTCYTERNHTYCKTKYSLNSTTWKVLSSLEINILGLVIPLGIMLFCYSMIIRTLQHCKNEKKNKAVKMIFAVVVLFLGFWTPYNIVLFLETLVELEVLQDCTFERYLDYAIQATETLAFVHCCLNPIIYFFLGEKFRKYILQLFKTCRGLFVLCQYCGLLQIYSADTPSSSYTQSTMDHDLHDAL

Molecule: C=CC(=O)N1CCN(c2nc(OC[C@@H]3CCCN3C)nc3c2CCN(c2cccc4cccc(C)c24)C3)C[C@@H]1CC#N [MRTX1257]
- frequency of c-casp3+ tumor cells in the CD8+ T cell close neighborhood ([1]; T/DC community, 'No Tregs' neighborhoods, FIG. 25): increased
- Ki67 expression on CD4+ and CD8+ T cells ([1]; T/DC community, dataset 2, FIG. 19A): significant increase
- occurrences of a c-casp3+ tumor cell in the 15-pixel neighborhood of a CD8+ T cell ([1]; T/DC community, dataset 2, FIG. 19B): increased
- images with CD4+ T cells and dendritic cells significantly enriched in the neighborhood of a CD8+ T cell ([1]; T/DC community, vs random permutation, FIG. 21A): at least five out of the six images
- images with Treg cells significantly enriched in the neighborhood of CD8+ T cells ([1]; T/DC community, FIG. 21A): 3 out of the 6
- mean expression of PD-1 on CD8+ T cells ([1]; T/DC, T/M2_1 and T/M2_2 communities, most pronounced in T/DC, FIGS. 16A-16B): an increase occurred
- PD-L1 expression on dendritic cells (accompanied by high CD86) ([1]; T/DC, T/M2_1 and T/M2_2 communities, FIGS. 13A-13C): increased PD-L1 expression
- interactions between tumor cells and neutrophils (communities 5, 13, 14, 15) ([1]; dataset 1, MRTX1257 vs Vehicle, FIG. 5): lost or dispersed
- mean expression of CXCL9 on dendritic cells and macrophages ([1]; dataset 2, highest in T/DC community, FIG. 14): increased
- mean expression of PD-1 on regulatory T cells ([1]; mainly in the T/DC community, FIG. 16D): higher PD-1 expression
- count of regulatory T cells ([1]; most notably in T/DC and T/M2_2 communities, FIG. 22): increased in size
- spatial distribution and neighborhood environment of CD8+ T cells ([1]; top 5 CD8+ T cell rich communities, MRTX1257 vs Vehicle, FIG. 11): shift in spatial distribution and neighborhood environment
- percentage of PD-1+ CD8+ T cells that are positive for LAG-3 ([1]; tumor-associated communities following MRTX treatment, FIG. 17B): ~30%
- immune phenotype of the tumor microenvironment ([2]; 50 mg/kg MRTX1257 for 7 days vs Vehicle): remodelled into a more inflammatory immune infiltrated TME
- type 2 macrophage number and activation markers ([2]; previously described): increased in cell number and upregulated activation markers such as PD-L1 and MHC-II
- tumor regression and growth [3]: tumors did not regress although tumor growth was inhibited

Molecule: Ipilimumab: human anti-CTLA-4 antibody with IgG1 constant region, SEQ ID NO: 150 and 151
- overall survival [4]: improvement in overall survival

Molecule: C=CC(=O)N1CCN(c2nc(=O)n(-c3c(C)ccnc3C(C)C)c3nc(-c4c(O)cccc4F)c(F)cc23)[C@@H](C)C1 [sotorasib]
- patients achieving temporary disease control [5]: 80%

Molecule: mogamulizumab: humanized, afucosylated monoclonal antibody targeting CC chemokine receptor 4 (CCR4)
- CD8+ T cell numbers [6]: modest reductions
- Treg depletion [6]: achieved
- conventional CD4+ T cells [6]: significant depletion
